Measured values taken from patent publication US20110257176A1, “NITROGEN HETEROCYCLE DERIVATIVES AS PROTEASOME MODULATORS” (INSTITUT NATIONAL DE LA SANTE ET DE LA RECHERCHE MEDICALE …, priority 2008, published 2011).
Where a SMILES comes first, the peptide text is derived from it. The star is where a group is joined. Cbz = O=C(OCc1ccccc1)*

How the values were obtained:
[1] = system: HeLa cells; assay: Cell viability, XTT assay, HeLa; assay type: cell-based; settings: Homo sapiens, 48 h, read-out: EC50, concentration inhibiting cell growth by 50%
Procedure: (§1) The cell survival was determined with the XTT assay. Human cells (HeLa from cervical carcinoma and HEK-293 from epithelial kidney) were obtained from Invitrogen (Cergy-Pontoise, France). The cells were grown at 37° C. in DMEM supplemented with 10% fetal bovine serum (Invitrogen) in a humidified atmosphere of 5% CO2 and 95% air.
(§2) 5×10^3 cells in 100 μL culture medium were exposed for 48 h in 96-well plates to increasing concentrations of compounds: 5-100 μM, final concentration of DMSO is 1% (v/v). The culture medium is then replaced by 100 μL of DMEM F12 culture medium devoid of phenol red and containing a mixture of XTT (0.3 mg/mL) and PMS (8.3 nM) (XTT: 2,3-bis[2-methoxy-4-nitro-5-sulfophenyl-2H-tetrazolium-5-carboxyanilide sodium; PMS: phenazine methosulfate, both purchased from Sigma, Saint Quentin Fallavier, France). Cells were then incubated for 3 h at 37° C.
(§3) During this incubation, the mitochondrial deshydrogenases of viable cells hydrolyzed the tetrazolium cycle of XTT, leading to orange formazan crystals soluble in aqueous solution.
(§4) The orange color was measured at 485 nm using a BMG Fluostar microplate reader.
(§5) In control experiments, cells were treated by the vehicule (DMSO) at the same concentration than that used for the inhibitors.
The cytotoxicity activity of drags was expressed as the concentration inhibiting cell growth by 50% (EC50) calculated from the survival curves. […]

[2] = target: T1, rabbit reticulocyte 20S proteasome, chymotrypsin-like (CT-L) activity (UniProt G1T4Q9); assay: 20S proteasome chymotrypsin-like (CT-L) activity, Suc-LLVY-AMC hydrolysis; assay type: biochemical; settings: rabbit 20S proteasome, pH 8, 37° C.
T1 construct: IC50 on chymotrypsin-like activity; other: rabbit 20S proteasome, pH 8, 37° C; Rabbit erythrocyte 20S proteasome was obtained from Boston Biochem, Cambridge, USA
Procedure: (§6) Rabbit erythrocyte 20S proteasome was obtained from Boston Biochem, Cambridge, USA. The fluorogenic substrates Suc-LLVY-AMC, Boc-LRR-AMC and Z-LLE-βNA used to measure the proteasome activities CT-L, T-L and PA respectively were purchased from Bachem (France). Other reagents and solvents were purchased from commercial sources. Fluorescence was measured using a BMG Fluostar microplate reader.
(§7) Compounds 1-23 were tested for their potential to inhibit the CT-L, T-L and PA activities of the rabbit reticulocyte 20S proteasome. Enzyme activities were determined by monitoring the hydrolysis of the appropriate fluorogenic substrate (λexc=360, λem=465 nm for AMC substrates, and λexc=340, λem=405 nm for the βNA substrate) for 1 h at 37° C.
(§8) In the in vitro screening, each compound was tested in duplicate against the three activities, at 100 μM and 50 μM in the corresponding buffer. The buffer were (pH 8): 50 mM Tris, 150 mM NaCl, 10% (v/v) glycerol, 0.025% (w/v) SDS, and 3% (v/v) DMSO (CT-L and PA activities); 50 mM Tris, 150 mM NaCl, 10% (v/v) glycerol, and 3% (v/v) DMSO (T-L activity).
(§9) The inhibitory activity of compounds is expressed as IC50, which corresponds to the concentration of proteasome inhibitor leading to a loss of activity of 50%. The values of IC50 were calculated by fitting the experimental data to equation 1: % Inhibition=100×(1−Vi/V0)=100 [I]0/(IC50+[I]0), or equation 2: % Inhibition=100 [I]0^nH/(IC50^nH+[I]0^nH), where Vi is the initial rate in the presence of the inhibitor, V0 is the initial rate in the absence of the inhibitor, [I]0 is the inhibitor concentration, nH is the Hill number (FIG. 1).

[3] = target: rabbit reticulocyte 20S proteasome, post-acid (PA) activity (Oryctolagus cuniculus, UniProt G1T235); assay: 20S proteasome post-acid (PA) activity, Z-LLE-βNA hydrolysis; assay type: biochemical; design: key to Inhibition of post-acid activity (NI): NI: No Inhibition; settings: rabbit 20S proteasome; for Inhibition of post-acid activity (NI): screened at 100 μM and 50 μM
Procedure: as §6, §7, §8, §9

[4] = system: rabbit reticulocyte 20S proteasome, trypsin-like (T-L) activity; assay: 20S proteasome trypsin-like (T-L) activity, Boc-LRR-AMC hydrolysis; assay type: biochemical; design: key to Inhibition of trypsin-like activity (NI): NI: No Inhibition; settings: rabbit 20S proteasome; for Inhibition of trypsin-like activity (NI): screened at 100 μM and 50 μM
Procedure: as §6, §7, §8, §9

[5] = target: human cathepsin B (Homo sapiens, UniProt P07858); assay: Selectivity: inhibition of cathepsin B; assay type: biochemical; settings: 100 μM compound
[6] = target: T2, rabbit reticulocyte 20S proteasome, chymotrypsin-like (CT-L) activity (Oryctolagus cuniculus, UniProt G1T4Q9); assay: 20S proteasome chymotrypsin-like (CT-L) activity, Suc-LLVY-AMC hydrolysis; assay type: biochemical; settings: rabbit 20S proteasome, pH 8, 37° C.
T2 construct: IC50 on chymotrypsin-like activity; other: rabbit 20S proteasome, pH 8, 37° C; Rabbit erythrocyte 20S proteasome was obtained from Boston Biochem, Cambridge, USA
T2 sequence (G1T4Q9 1-263): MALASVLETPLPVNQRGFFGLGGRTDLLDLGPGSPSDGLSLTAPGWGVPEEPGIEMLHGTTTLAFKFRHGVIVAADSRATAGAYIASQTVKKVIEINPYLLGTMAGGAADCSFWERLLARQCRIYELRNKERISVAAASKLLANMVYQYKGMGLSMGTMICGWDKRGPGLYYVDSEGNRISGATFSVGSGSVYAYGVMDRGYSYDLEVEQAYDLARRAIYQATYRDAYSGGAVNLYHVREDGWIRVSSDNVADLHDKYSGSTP
Procedure: as §6, §7, §8, §9

[7] = system: HEK-293 cells; assay: Cell viability, XTT assay, HEK-293; assay type: cell-based; settings: Homo sapiens, HEK293, 48 h, read-out: EC50, concentration inhibiting cell growth by 50%
Procedure: as §1, §2, §3, §4, §5
The cytotoxicity activity of drags was expressed as the concentration inhibiting cell growth by 50% (EC50) calculated from the survival curves. The experimental data are fitted to the following equation, describing the relationship between % survival and drug concentration (C):
% cell survival=100−(Emax×C^n)/(C^n+EC50^n)
where C is the drug concentration; Emax is the maximum drug effect (%); EC50 is the concentration that produces one-half of the maximum effect; and n is the Hill constant, which describes the shape of the curve.

[8] = target: T3, human erythrocyte 20S proteasome, chymotrypsin-like (CT-L) activity (Homo sapiens, UniProt P28074); assay: 20S proteasome chymotrypsin-like (CT-L) activity, Suc-LLVY-AMC hydrolysis; assay type: biochemical; settings: pH 7.5
T3 construct: three activities of human erythrocyte 20S proteasome; from tissue; host or cells: human erythrocytes
Procedure: as §6, §9
(§10) Compounds 24, 25 and 31-35 were tested in duplicate against three activities of human erythrocyte 20S proteasome at 100 and 50 μM in the appropriate buffer (pH 7.5): 20 mM Tris HCl, 10% (v/v) glycerol, 0.01% (w/v) SDS and 2% DMSO (CT-L and PA activities); 20 mM Tris HCl, 10% (v/v) glycerol, and 2% DMSO (T-L activity). The inhibitory activities were analyzed as described above for compounds 1-23.

[9] = target: T4, human erythrocyte 20S proteasome, post-acid (PA) activity (Homo sapiens, UniProt P28072); assay: 20S proteasome post-acid (PA) activity, Z-LLE-βNA hydrolysis; assay type: biochemical; design: key: NI: No Inhibition; settings: screened at 100 and 50 μM
T4 construct: three activities of human erythrocyte 20S proteasome; from tissue; host or cells: human erythrocytes
Procedure: as §6, §9, §10

[10] = target: T5, human erythrocyte 20S proteasome, trypsin-like (T-L) activity (Homo sapiens, UniProt Q99436); assay: 20S proteasome trypsin-like (T-L) activity, Boc-LRR-AMC hydrolysis; assay type: biochemical; design: key to Inhibition of trypsin-like activity (NI): NI: No Inhibition; settings: screened at 100 and 50 μM
T5 construct: three activities of human erythrocyte 20S proteasome; from tissue; host or cells: human erythrocytes
Procedure: as §6, §9, §10

[11] = system: cellular proteasome in HEK-293 cells; assay: Inhibition of proteasome in a cell assay: accumulation of ubiquitinylated proteins (Western blot); assay type: cell-based, Human; settings: 16 h, 10 μM
Procedure: Indeed, if the proteasomes are inhibited, in particular the proteasome 26S, the degradation of ubiquitinalyted proteins should be blocked, and those proteins should accumulate.
240 000 HEK-293 cells were incubated for 16 h, in presence of oxadiazole derivatives at the concentration of 10 μM.
After extraction of the proteins (centrifugation of lysed cells), the concentration of proteins in the sample was determined with the BCA (Bicinchoninic Acid) protein Assay.
3 μg of proteins for each sample were deposited into a SDS-PAGE gel at 8%.

Chain of rabbit reticulocyte 20S proteasome, post-acid (PA) activity (G1T235 entry or part of it): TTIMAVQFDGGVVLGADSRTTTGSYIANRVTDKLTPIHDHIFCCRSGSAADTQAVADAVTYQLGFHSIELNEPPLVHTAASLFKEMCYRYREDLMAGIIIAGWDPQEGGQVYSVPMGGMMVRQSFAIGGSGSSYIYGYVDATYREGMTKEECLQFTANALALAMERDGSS

Structure (SMILES) | IC50 [2] [µM] | Inhibition of post-acid activity (NI) [3] | Inhibition of trypsin-like activity (NI) [4] | EC50 [7] [µM] | further results
Cc1ccc(-c2noc(CN(C(=O)COc3ccc(C(C)C)cc3)C(C)C)n2)cc1 [Compound 1] | ~7 | NI | NI |  | EC50 [1]: 44 ± 3.8 µM
Cc1cccc(-c2noc(CN(C(=O)COc3ccc(C(C)C)cc3)C(C)C)n2)c1 [Compound 2] | ~1 | NI | NI |  | EC50 [1]: 32 ± 3.6 µM
COc1ccc(-c2noc(CN(C(=O)COc3cccc(C)c3)C(C)C)n2)cc1 [Compound 13] | 2.33 ± 0.28 | NI |  |  | Inhibition of human cathepsin B (in words) [5]: no inhibition; % inhibition (inhibitor concentration) on trypsin-like activity ([4]; 100 μM inhibitor): 28% (100 μM)
C=CCOc1ccc(C(=O)N(Cc2nc(-c3ccc(OC)c(OC)c3)no2)C(C)C)cc1 [Compound 19] |  | NI |  | 39.2 ± 2 | IC50 [6]: 3.51 ± 0.12 µM; Activation × of trypsin-like activity ([4]; 100 μM compound, fold activation): Activation × 11.5 (100 μM)
O=C(Cc1cccc2ccccc12)Nc1cccc(-c2nnc(-c3ccccc3)o2)c1 [Compound 21] |  |  | NI | 26 ± 2.3 | IC50 [6]: 144 ± 22 µM; inhibition at 100 µM ([3]; 100 μM inhibitor, read-out: % inhibition (inhibitor concentration) on post-acid activity): 22%
CC(C)N(Cc1nc(CCl)no1)C(=O)COc1ccc(Br)cc1 [Compound 31] |  |  |  | 16.1 ± 0.5 | IC50 [8]: 2.69 ± 0.22 µM; Inhibition of post-acid activity (NI) [9]: NI; Inhibition of trypsin-like activity (NI) [10]: NI
CC(C)C[C@@H](C=O)NC(=O)[C@H](CC(C)C)NC(=O)[C@H](CC(C)C)NC(=O)OCc1ccccc1 [MG132] (Cbz-Leu-Leu-Leu-aldehyde) |  |  |  |  | Accumulation of ubiquitinylated proteins (anti-ubiquitin Western blot) [11]: induce an accumulation of ubiquitinalyted proteins
